In patent US5606020A, “6 (R)-l-erythro-5,6,7,8-tetrahydrobiopterin receptor” (Suntory Limited, priority 1991, dated 1997):
One block for each compound: values may come before it.

Key:
6R-BH4 receptor [1] = target: T1, 6R-BH4 receptor (Rattus norvegicus, UniProt P29476); assay: Scatchard plot analysis of [6-^3 H]6R-BH4 binding to solubilized fraction of rat cerebellum
T1 construct: solubilized fraction of rat cerebellum; from tissue; host or cells: rat cerebellum, P2 membrane fraction solubilized with CHAPS (not purified)
Experimental: The Scatchard plot analysis may be carried out, for example, as follows. In an appropriate buffer solution, for example, 50 mM Tris hydrochloride (pH 7.4), 100 mM NaCl, 10 mM MgCl2, 2 mM ascorbic acid and 6 mM cysteine solution, a fraction containing the receptor solubilized with CHAPS is incubated with [6-^3 H]6R-BH4 at various concentrations under appropriate conditions, for example, at 37° C. for 10 minutes. Then the radioactivity is measured by a conventional method and plotted. From the plots, Kd (dissociation constant) and Bmax are determined and employed as indicators of the affinity.
By using a determined amount of the solubilized fraction of rat cerebellum, Scatchard plot analysis with regard to the solubilized receptor protein of the present invention was performed by the conventional method. […]
The reaction mixture was cooled on ice for 10 minutes and then filtered through a glass filter. […] 2 ml of ethanol and 8 ml of creasol (Nacalai Tesque) were added to the filter and the radioactivity on the filter was measured in a liquid scintillation counter.
FIG. 4 is a graph showing the radioactivities which bound to the receptor when [6-^3 H]6R-BH4 was added at various concentrations to a determined amount of the solubilized receptor. […] Accordingly, the saturation of the specific binding can be calculated as the difference between the total and nonspecific bindings. […]

[2] = tested on: release of neurotransmitter amines such as dopamine (DA), norepinephrine and serotonin; assay: Release and liberation of neurotransmitters
[3] = target: known enzymes which participate in the biosynthesis of 6R-BH4 or enzymes for which 6R-BH4 acts as a coenzyme; conditions: enzymes of 6R-BH4 biosynthesis or using 6R-BH4 as coenzyme; cited from earlier work
[4] = supplementation therapy; cited from earlier work
6R-BH4 receptor [5] = target: T1, 6R-BH4 receptor; assay: Competitive binding test between various compounds and 13 nM [6-^3 H]6R-BH4, solubilized fraction of rat cerebellum; conditions: for affinity of the receptor to 6R-BH4 relative to its affinity to the compound (from IC50 data): 13 nM [6-^3 H]6R-BH4, solubilized fraction of rat cerebellum
Experimental: The specificity of the receptor of the present invention in binding to 6R-BH4 can be confirmed by a competitive binding test with the use of various compounds at varying concentrations.
In this method, the above-mentioned compounds at varying concentrations (for example, biopterin as will be described in Example 6 hereinafter) are added as a ligand simultaneously with [6-^3 H]6R-BH4 to the reaction mixture and the reaction is performed. The ability of the receptor of the present invention to bind to 6R-BH4 will not be inhibited to any substantial extent by these ligands.
By using the solubilized fraction of rat cerebellum, a competitive binding test between various compounds at varying concentrations and 13 nM of [6-^3 H]6R-BH4 was carried out.
About 0.3 mg (protein) of the solubilized fraction obtained in Example 3 was incubated together with 13 nM of [6-^3 H]6R-BH4 in a 200 μl solution of 50 mM Tris hydrochloride (pH 7.4), 100 mM NaCl, 10 mM MgCl2, 2 mM ascorbic acid and 6 mM cysteine at 37° C. for 10 minutes. Then 3 mg/ml (final concentration) of bovine γ-globulin and 15% (final concentration) of polyethylene glycol 6000 were added to cease the reaction.
Next, the reaction mixture was cooled on ice for 10 minutes and then passed through a glass filter. After being washed 4 times with 4 ml portions of 8% polyethylene glycol and 10 mM Tris hydrochloride (pH 7.4), the filter was taken off and placed in a vial. 2 ml of ethanol and 8 ml of creasol (Nacalai Tesque) were added to the filter and the radioactivity on the filter was measured in a liquid scintillation counter.
The results thus obtained were referred to as total binding. Then various compounds at varying concentrations were added as a ligand simultaneously with [6-^3 H]6R-BH4 in the above procedure, and the reaction was effected.

T1 sequence (P29476 whole entry): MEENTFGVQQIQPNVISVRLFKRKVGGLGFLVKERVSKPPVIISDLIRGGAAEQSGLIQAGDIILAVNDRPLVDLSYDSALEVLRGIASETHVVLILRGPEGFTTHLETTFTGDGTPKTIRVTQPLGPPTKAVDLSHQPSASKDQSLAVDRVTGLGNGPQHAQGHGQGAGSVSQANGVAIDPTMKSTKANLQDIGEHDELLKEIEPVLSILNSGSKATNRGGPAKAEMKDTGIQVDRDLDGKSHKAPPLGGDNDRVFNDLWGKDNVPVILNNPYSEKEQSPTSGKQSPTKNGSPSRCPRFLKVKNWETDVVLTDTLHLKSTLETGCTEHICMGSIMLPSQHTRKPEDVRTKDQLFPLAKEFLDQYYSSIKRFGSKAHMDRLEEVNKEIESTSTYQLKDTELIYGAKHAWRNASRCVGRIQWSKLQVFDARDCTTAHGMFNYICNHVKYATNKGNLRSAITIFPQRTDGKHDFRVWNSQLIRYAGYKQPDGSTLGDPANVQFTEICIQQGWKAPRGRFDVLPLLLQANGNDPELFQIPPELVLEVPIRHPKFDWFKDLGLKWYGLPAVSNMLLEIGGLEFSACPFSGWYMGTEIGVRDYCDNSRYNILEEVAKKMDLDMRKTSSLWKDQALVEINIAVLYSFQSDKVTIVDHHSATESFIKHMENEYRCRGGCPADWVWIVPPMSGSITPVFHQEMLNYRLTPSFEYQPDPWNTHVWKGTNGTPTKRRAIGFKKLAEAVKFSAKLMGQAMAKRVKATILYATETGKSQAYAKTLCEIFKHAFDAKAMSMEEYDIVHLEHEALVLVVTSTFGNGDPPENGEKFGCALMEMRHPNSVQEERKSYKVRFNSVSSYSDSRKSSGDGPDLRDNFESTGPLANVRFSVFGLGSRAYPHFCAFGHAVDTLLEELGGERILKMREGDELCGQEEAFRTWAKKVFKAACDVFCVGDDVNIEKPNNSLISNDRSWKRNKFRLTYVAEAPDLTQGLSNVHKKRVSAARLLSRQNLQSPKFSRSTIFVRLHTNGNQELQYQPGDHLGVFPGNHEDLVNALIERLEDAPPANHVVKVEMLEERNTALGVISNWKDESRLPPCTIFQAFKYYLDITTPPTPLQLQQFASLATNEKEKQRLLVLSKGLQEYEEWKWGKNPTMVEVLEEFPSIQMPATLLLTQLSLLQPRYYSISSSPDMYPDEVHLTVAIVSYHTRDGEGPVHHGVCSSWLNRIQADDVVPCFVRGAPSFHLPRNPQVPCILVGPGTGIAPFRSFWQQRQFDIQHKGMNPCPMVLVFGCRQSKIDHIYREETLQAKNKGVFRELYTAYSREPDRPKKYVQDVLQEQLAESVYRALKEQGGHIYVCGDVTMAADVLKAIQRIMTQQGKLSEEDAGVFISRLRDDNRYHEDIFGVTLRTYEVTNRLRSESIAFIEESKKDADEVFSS

Bmax (maximum binding constant) (6R-BH4 receptor [1]): 550 fmol/mg protein
Kd (6R-BH4 receptor [1]; 37° C. for 10 minutes, read-out: Kd (dissociation constant)): 0.021 µM
Structure (SMILES): C[C@H](O)[C@H](O)[C@H]1CNc2nc(N)[nH]c(=O)c2N1 [6R-BH4, 6(R)-L-erythro-5,6,7,8-tetrahydrobiopterin]
liberation of glutamic acid, aspartic acid or GABA via DA and release of acetylcholine via serotonin [2]: enhances
release and liberation of neurotransmitter amines such as dopamine (DA), norepinephrine and serotonin [2]: enhances
Kd for known enzymes [3]: several ten
treatment of malignant phenylketonuria, juvenile Parkinson's disease and infantile autism of the dysbolism type [4]: effective

affinity of the receptor to 6R-BH4 relative to its affinity to the compound (from IC50 data) (6R-BH4 receptor [5]): > 1,000 times
Structure (SMILES): C[C@H](O)[C@H](O)[C@@H]1CNc2nc(N)[nH]c(=O)c2N1 [6S-BH4]

affinity of the receptor to 6R-BH4 relative to its affinity to the compound (from IC50 data) (6R-BH4 receptor [5]): more than 50 times
Structure (SMILES): C[C@H](O)[C@H](O)C1=Nc2c(nc(N)[nH]c2=O)NC1 [BH2, 7,8-dihydrobiopterin]

Structure (SMILES): Nc1nc2c(c(=O)[nH]1)NC(CNc1ccc(C(=O)N[C@@H](CCC(=O)O)C(=O)O)cc1)CN2 (stereo partly drawn) [FAH4, tetrahydrofolic acid]
binding ability to the receptor (6R-BH4 receptor [5]; competitive binding, solubilized fraction of rat cerebellum): does not show any substantial binding ability
